Results published in patent US7740835B2, “Anaerobic bacterium as a drug for cancer gene therapy” (Anaeropharma Science Inc., priority 2000, dated 2010).

System: Lewis lung cancer cells
Assay: Growth of B. longum in tumor tissues by administering lacturose
Type: in vivo, mice
Details: B. longum 105-A administered; 1 ml of 20 t lacturose solution intraperitoneally for 8 successive days; analysed on the 9th day
Text: Lacturose (provided by Nikken Chemicals Co., Ltd.) is a synthetic saccharide not occurring in nature, and it is known that lacturose cannot be metabolized by humans, mice and pigs (Biochem. Biophys. Acta, 110, 635 (1965), Pediatrics, 32, 1033 (1963), Gastroenterology, 47, 26 (1964), Die Nahrung, 11, 39 (1967)). On the other hand, B. longum is capable of growing with lacturose as a carbon source.
As a result, the number of B. longum bacteria present of the tumor tissues in the tumor-bearing mouse group given lacturose was 200-times as more as that of the control group not given lacturose.

OC[C@H]1O[C@@H](O[C@@H]2[C@@H](CO)OC(O)(CO)[C@H]2O)[C@H](O)[C@@H](O)[C@H]1O (stereo partly drawn) [lacturose, 4-0-β-D-galactopyranosyl-D-fructofuranose]
number of B. longum bacteria in tumor tissues of the group given lacturose relative to the control group not given lacturose: 200 times
